The structures appear in SMILES notation.

The test has as its target T1, Kinesin-like protein KIF11 (Homo sapiens, UniProt P52732).
T1 sequence (P52732 whole entry): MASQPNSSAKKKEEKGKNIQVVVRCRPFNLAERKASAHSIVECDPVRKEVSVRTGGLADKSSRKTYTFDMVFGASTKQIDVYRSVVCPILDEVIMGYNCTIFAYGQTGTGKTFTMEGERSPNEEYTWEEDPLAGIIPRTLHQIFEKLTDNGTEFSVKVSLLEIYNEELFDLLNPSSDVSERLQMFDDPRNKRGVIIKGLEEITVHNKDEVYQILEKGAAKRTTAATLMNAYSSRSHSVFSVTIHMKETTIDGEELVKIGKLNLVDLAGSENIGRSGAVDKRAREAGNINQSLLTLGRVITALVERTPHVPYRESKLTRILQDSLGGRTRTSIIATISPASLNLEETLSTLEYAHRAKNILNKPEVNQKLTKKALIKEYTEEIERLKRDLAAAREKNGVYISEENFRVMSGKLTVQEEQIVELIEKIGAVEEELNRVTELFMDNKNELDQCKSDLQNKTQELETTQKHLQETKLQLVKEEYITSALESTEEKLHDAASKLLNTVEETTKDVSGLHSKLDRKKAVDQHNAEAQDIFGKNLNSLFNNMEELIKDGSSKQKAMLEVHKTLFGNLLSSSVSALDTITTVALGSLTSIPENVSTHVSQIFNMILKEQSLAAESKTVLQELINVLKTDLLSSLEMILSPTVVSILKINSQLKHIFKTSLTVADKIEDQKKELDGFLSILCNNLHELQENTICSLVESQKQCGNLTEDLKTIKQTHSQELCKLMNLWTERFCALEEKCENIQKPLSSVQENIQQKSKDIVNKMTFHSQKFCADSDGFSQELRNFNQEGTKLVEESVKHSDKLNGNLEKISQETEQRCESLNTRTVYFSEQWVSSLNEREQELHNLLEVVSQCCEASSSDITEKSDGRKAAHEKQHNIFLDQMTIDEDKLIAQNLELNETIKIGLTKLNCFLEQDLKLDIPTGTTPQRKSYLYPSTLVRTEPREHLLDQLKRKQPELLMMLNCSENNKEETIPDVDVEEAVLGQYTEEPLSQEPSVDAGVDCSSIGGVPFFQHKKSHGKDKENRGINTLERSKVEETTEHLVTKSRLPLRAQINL
The test is described as follows: In Vitro Assay: This example provides a representative in vitro assay for determining KSP activity in vitro. Purified microtubules obtained from bovine brain were purchased from Cytoskeleton Inc. (Denver, Colo., USA). The motor domain of human KSP (Eg 5, KNSL1) was cloned, expressed, and purified to greater than 95% homogeneity. Biomol Green was purchased from Affinity Research Products Ltd. (Matford Court, Exeter, Devon, United Kingdom). Microtubules and KSP motor protein (i.e., the KSP motor domain) were diluted in assay buffer (20 mM Tris-HCl (pH 7.5), 1 mM MgCl2, 10 mM DTT and 0.25 mg/mL BSA) to a final concentration of 35 μg/mL microtubules and 45 nM KSP. The microtubule/KSP mixture was then pre-incubated at 37 C. for 10 min to promote the binding of KSP to microtubules.

A word on the IC50: it is the concentration needed to halve the response being measured. As to `C[C@H](O)C(=O)N(CC[C@H](N)CF)[C@H](c1nc(-c2cc(F)ccc2F)sc1Cc1ccccc1)C(C)(C)C`, the IC50 worked out at 216 nM.

The record behind these values is ChEMBL document CHEMBL3638619, “Oxazole and thiazole compounds as KSP inhibitors” (2014).
